Measured values from PubChem BioAssay (NCI).
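Dose response: 5 concentrations. Exposure: 48 h. Format: 96-well plates. Endpoint: linear interpolation; highest concentration if not reached. GI50: concentration for 50% inhibition of growth. At the TGI there is no net growth.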

Assays:
Experiment in all cases: DTP human tumour cell line panel, 48 h
[1] = tested on: NCI-H522 lung
[2] = tested on: SF-268 CNS
[3] = tested on: IGROV1 ovarian
[4] = tested on: SNB-19 CNS
[5] = tested on: HCT-116 colon
[6] = tested on: HL-60(TB) leukemia
[7] = tested on: SK-MEL-2 melanoma
[8] = tested on: HCC-2998 colon
[9] = tested on: NCI/ADR-RES ovarian
[10] = tested on: HOP-92 NSCLC
[11] = tested on: NCI-H23 lung
[12] = tested on: CCRF-CEM leukemia
[13] = tested on: SNB-75 CNS
[14] = tested on: HS 578T breast
[15] = tested on: K-562 leukemia
[16] = tested on: MOLT-4 leukemia
[17] = tested on: RXF 393 renal
[18] = tested on: MDA-MB-435
[19] = tested on: OVCAR-4 ovarian
[20] = tested on: A549 NSCLC
[21] = tested on: MCF7 breast
[22] = tested on: OVCAR-3 ovarian
[23] = tested on: OVCAR-5 ovarian
[24] = tested on: ACHN renal
[25] = tested on: EKVX NSCLC
[26] = tested on: 786-0 renal
[27] = tested on: SW-620 colon
[28] = tested on: CAKI-1 renal
[29] = tested on: SF-539 CNS
[30] = tested on: UACC-257 melanoma
[31] = tested on: UO-31 renal
[32] = tested on: NCI-H226 lung
[33] = tested on: SF-295 CNS
[34] = tested on: PC-3 prostate
[35] = tested on: RPMI-8226 leukemia
[36] = tested on: LOX IMVI melanoma
[37] = tested on: MDA-MB-231 breast
[38] = tested on: TK-10 renal
[39] = tested on: T-47D breast
[40] = tested on: HOP-62 NSCLC
[41] = tested on: SK-OV-3 ovarian
[42] = tested on: HT29 colon
[43] = tested on: KM12 colon
[44] = tested on: SN12C renal
[45] = tested on: UACC-62 melanoma
[46] = tested on: HCT-15 colon
[47] = tested on: SK-MEL-5 melanoma
[48] = tested on: U251 CNS
[49] = tested on: OVCAR-8 ovarian
[50] = tested on: MALME-3M melanoma
[51] = tested on: NCI-H460 lung
[52] = tested on: DU-145 prostate
[53] = tested on: COLO 205 colon

O=c1cc(-c2ccccc2)oc2cc(OCc3cn(Cc4ccc(F)cc4)nn3)cc(OCc3cn(Cc4ccc(F)cc4)nn3)c12
GI50 [1]: 3.66 µM
TGI [1]: > 100 µM
GI50 [2]: 3.52 µM
TGI [2]: > 100 µM
GI50 [3]: 4.45 µM
TGI [3]: > 100 µM
GI50 [4]: 4.55 µM
TGI [4]: > 100 µM
GI50 [5]: 3.52 µM
TGI [5]: > 100 µM
GI50 [6]: > 100 µM
TGI [6]: > 100 µM
GI50 [7]: 4.49 µM
TGI [7]: 33.1 µM
GI50 [8]: > 100 µM
TGI [8]: > 100 µM
GI50 [9]: > 100 µM
TGI [9]: > 100 µM
GI50 [10]: 1.89 µM
TGI [10]: 5.52 µM
GI50 [11]: 3.7 µM
TGI [11]: > 100 µM
GI50 [12]: > 100 µM
TGI [12]: > 100 µM
GI50 [13]: 1.69 µM
TGI [13]: 4.85 µM
GI50 [14]: 3.28 µM
TGI [14]: > 100 µM
GI50 [15]: > 100 µM
TGI [15]: > 100 µM
GI50 [16]: > 100 µM
TGI [16]: > 100 µM
GI50 [17]: 1.78 µM
TGI [17]: 4.5 µM

COc1cccc(C2CC(=O)c3cc(N4CCCC4)ccc3N2)c1 (centres undefined)
TGI [1]: 0.0624 µM
TGI [18]: 1.49 µM
TGI [19]: > 100 µM
TGI [20]: > 100 µM
TGI [4]: > 100 µM
GI50 [21]: 0.0739 µM
TGI [21]: > 100 µM
TGI [22]: > 100 µM
GI50 [23]: > 100 µM
TGI [23]: > 100 µM
GI50 [7]: 64.5 µM
TGI [7]: > 100 µM
TGI [24]: 34.8 µM
TGI [25]: > 100 µM
TGI [26]: > 100 µM
TGI [27]: > 100 µM
GI50 [8]: 0.0146 µM
TGI [8]: 0.389 µM
TGI [28]: > 100 µM
TGI [9]: 0.0491 µM
GI50 [10]: > 100 µM
TGI [10]: > 100 µM
TGI [29]: > 100 µM
TGI [30]: > 100 µM
TGI [31]: 65.8 µM
TGI [32]: 36.3 µM
TGI [11]: 0.163 µM
TGI [12]: > 100 µM
TGI [33]: > 100 µM
TGI [34]: > 100 µM
TGI [35]: > 100 µM
TGI [36]: > 100 µM
GI50 [37]: 4.66 µM
TGI [37]: > 100 µM
TGI [14]: > 100 µM
GI50 [38]: 45.5 µM
TGI [38]: > 100 µM
TGI [39]: > 100 µM
TGI [15]: > 100 µM
TGI [40]: > 100 µM

COc1ccc2c3c([nH]c2c1)C(=O)c1nc(C)ccc1C3=O
GI50 [1]: 3.83 µM
TGI [1]: > 100 µM
GI50 [41]: > 100 µM
TGI [41]: > 100 µM
GI50 [2]: 7.8 µM
TGI [2]: > 100 µM
GI50 [18]: 1.78 µM
TGI [18]: 3.19 µM
GI50 [3]: 0.326 µM
TGI [3]: > 100 µM
GI50 [19]: 2.06 µM
TGI [19]: > 100 µM
GI50 [4]: 2.61 µM
TGI [4]: > 100 µM
GI50 [21]: 1.98 µM
TGI [21]: > 100 µM
GI50 [22]: 1.62 µM
TGI [22]: 7.05 µM
GI50 [23]: 4.42 µM
TGI [23]: > 100 µM
GI50 [6]: 2.79 µM
TGI [6]: > 100 µM
GI50 [42]: 3.88 µM
TGI [42]: > 100 µM
GI50 [7]: 7.04 µM
TGI [7]: > 100 µM
GI50 [24]: 2.55 µM
TGI [24]: > 100 µM
GI50 [43]: 4.95 µM
TGI [43]: > 100 µM
GI50 [25]: 2.68 µM
TGI [25]: > 100 µM
GI50 [44]: 3.24 µM
TGI [44]: > 100 µM
GI50 [45]: 1.4 µM
TGI [45]: 3.08 µM
GI50 [27]: 3.66 µM
TGI [27]: > 100 µM
GI50 [8]: 3.81 µM
TGI [8]: > 100 µM
GI50 [46]: 1.94 µM
TGI [46]: > 100 µM
GI50 [28]: 3.82 µM
TGI [28]: > 100 µM
GI50 [9]: 2.75 µM
TGI [9]: > 100 µM
GI50 [47]: 0.792 µM
TGI [47]: 2.2 µM
GI50 [48]: 4.85 µM
TGI [48]: > 100 µM
GI50 [10]: 20.7 µM
TGI [10]: > 100 µM
GI50 [29]: 3.75 µM
TGI [29]: > 100 µM
GI50 [30]: 1.48 µM
TGI [30]: 5.41 µM
GI50 [31]: 1.03 µM
TGI [31]: > 100 µM
GI50 [11]: 1.08 µM
TGI [11]: 4.07 µM
GI50 [12]: 3.69 µM
TGI [12]: > 100 µM
GI50 [49]: 3.35 µM
TGI [49]: > 100 µM
GI50 [33]: 1.21 µM
TGI [33]: 2.64 µM
GI50 [34]: 2 µM
TGI [34]: > 100 µM
GI50 [35]: 2.91 µM
TGI [35]: > 100 µM
GI50 [36]: 2.24 µM
TGI [36]: > 100 µM
GI50 [37]: 3.33 µM
TGI [37]: > 100 µM
GI50 [50]: 0.331 µM
TGI [50]: 1.65 µM
GI50 [14]: 13.6 µM
TGI [14]: > 100 µM
GI50 [38]: > 100 µM
TGI [38]: > 100 µM
GI50 [39]: 2.65 µM
TGI [39]: > 100 µM
GI50 [15]: 3.31 µM
TGI [15]: > 100 µM
GI50 [16]: 2.63 µM
TGI [16]: > 100 µM
GI50 [51]: 1.02 µM
TGI [51]: 3.28 µM
GI50 [40]: 3.5 µM
TGI [40]: > 100 µM
GI50 [52]: 1.7 µM
TGI [52]: 3.24 µM
GI50 [17]: 7.3 µM
TGI [17]: > 100 µM

Cc1ccc2c(c1)C(=O)C(c1c(-c3[nH]c(=O)c4ccc(C)cc4c3O)c(O)c3ccccc3c1O)=NC2=O
GI50 [41]: 2.15 µM
TGI [41]: 5.36 µM
GI50 [2]: 2.24 µM
TGI [2]: 5.47 µM
GI50 [18]: 1.69 µM
TGI [18]: 3.29 µM
GI50 [19]: 1.17 µM
TGI [19]: 2.43 µM
GI50 [20]: 2.1 µM
TGI [20]: 4.26 µM
GI50 [4]: 2.31 µM
TGI [4]: 7.3 µM
GI50 [5]: 0.423 µM
TGI [5]: 1.53 µM
GI50 [21]: 1.59 µM
TGI [21]: 4.58 µM
GI50 [22]: 0.832 µM
TGI [22]: 2.4 µM
GI50 [53]: 2.85 µM
TGI [53]: 12.8 µM
GI50 [23]: 2.87 µM
TGI [23]: > 100 µM
GI50 [24]: 1.72 µM
TGI [24]: 4.36 µM
GI50 [25]: 1.72 µM
TGI [25]: 5.66 µM
GI50 [44]: 1.8 µM
TGI [44]: 3.63 µM
GI50 [45]: 1.76 µM
TGI [45]: 3.79 µM
GI50 [27]: 1.56 µM
TGI [27]: 3.44 µM
GI50 [8]: 2.3 µM
TGI [8]: 4.97 µM
GI50 [9]: 2.11 µM
TGI [9]: 7.56 µM
GI50 [47]: 1.87 µM
TGI [47]: 3.81 µM
GI50 [48]: 1.24 µM
TGI [48]: 2.7 µM
GI50 [10]: 1.66 µM
TGI [10]: 5.1 µM
GI50 [29]: 1.67 µM
TGI [29]: 3.31 µM
GI50 [30]: 3.04 µM
TGI [30]: 7.98 µM
GI50 [11]: 1.63 µM
TGI [11]: 4.04 µM
GI50 [12]: 0.83 µM
TGI [12]: 8.03 µM
GI50 [33]: 1.67 µM
TGI [33]: 3.55 µM
GI50 [35]: 2.32 µM
TGI [35]: 6.68 µM
GI50 [36]: 1.28 µM
TGI [36]: 2.71 µM
GI50 [13]: 1.42 µM
TGI [13]: 2.84 µM
GI50 [37]: 0.457 µM
TGI [37]: 3.86 µM
GI50 [50]: 1.76 µM
TGI [50]: 3.54 µM
GI50 [14]: 2.34 µM
TGI [14]: 6.33 µM
GI50 [38]: 2.91 µM
TGI [38]: 5.97 µM
GI50 [39]: 1.48 µM
TGI [39]: 5.26 µM
GI50 [15]: 0.378 µM
TGI [15]: 3.44 µM
GI50 [16]: 0.527 µM
TGI [16]: 3.02 µM
GI50 [51]: 1.78 µM
TGI [51]: 3.39 µM
GI50 [52]: 1.18 µM
TGI [52]: 2.9 µM
